Assays:
cucumber downy mildew = test: Protectant activity in vivo (whole plant), cucumber downy mildew; details: for pest or weed control at 100 µg/mL / pest or weed control at 400 µg/mL / pest or weed control at 25 µg/mL / pest or weed control at 50 µg/mL: Cucumis sativus, 168 h, read-out: protectant activity against cucumber downy mildew
Method: (§1) The method is as followed: The whole plant is used in this test. The compound is dissolved in a proper solvent to get mother solution. The proper solvent is selected from acetone, methanol, DMF and so on according to their dissolving capability to the sample. […] The testing solution is sprayed to the host plant by a special plant sprayer. The plant is inoculated with fungus after 24 hours. According to the infecting characteristic of fungus, the plant is stored in a humidity chamber and then transferred into greenhouse after infection is finished. And the other plants are placed in greenhouse directly. The activity of compound is obtained by eyeballing after 7 days in common.

corn rust = test: Protectant activity in vivo (whole plant), corn rust; details: for pest or weed control at 100 µg/mL / pest or weed control at 400 µg/mL / pest or weed control at 25 µg/mL / pest or weed control at 6.25 µg/mL: Zea mays, 168 h, read-out: protectant activity against corn rust; for pest or weed control at 6.25 µg/mL: 6.25 mg/L
Method: as §1

wheat powdery mildew = test: Protectant activity in vivo (whole plant), wheat powdery mildew
Method: as §1

diamond back moth = test: Insecticidal activity against diamond back moth (airbrush spray); type: in vivo; details: mortality after 72 h; for pest or weed control at 600 µg/mL / pest or weed control at 100 µg/mL: read-out: control of the second instar larvae of diamond back moth; for pest or weed control at 100 µg/mL: 100 mg/L
Method: (§2) Compounds were dissolved in mixed solvent (acetone:methanol=1:1), and diluted to required concentration with water containing 0.1% of tween 80.
(§3) Diamond back moth, armyworm, Green Peach Aphid and carmine spider mite were used as targets and the method of spraying by airbrush was used for determination of insecticidal biassays.
(§4) The method of spraying by airbrush: The cabbage leaves were made into plates of 2 cm diameter by use of punch. A test solution (0.5 ml) was sprayed by airbrush at the pressure of 0.7 kg/cm^2 to both sides of every plate. 10 Second instar larvae were put into the petri-dishes after the leaf disc air-dried and 3 replicates were set for each treatment. Then the insects were maintained in observation room (25° C., 60˜70% R.H.). Scores were conducted and mortalities were calculated after 72 h.

armyworm = test: Insecticidal activity against armyworm (airbrush spray); type: in vivo; details: second instar larvae, mortality after 72 h
Method: as §2, §3
as §4, with “corn” for “cabbage”

carmine spider mite = test: Acaricidal activity against carmine spider mite (airbrush spray); type: in vivo; details: 100 mg/L, adults, mortality after 72 hrs; for pest or weed control at 100 µg/mL: Tetranychus cinnabarinus
Method: as §2, §3
Method: Broadbean shoots with two true leaves in pot were taken, the healthy adults of carmine spider mite were inoculated to the leaves. The adults were counted and then sprayed with airbrush at the pressure of 0.7 kg/cm^2 and at dose of 0.5 ml. 3 replicates were set for each treatment. And then they were maintained in standard observation room. Scores were conducted and mortalities were calculated after 72 hrs.

[1] = test system: Green peach aphids (Myzus Persicae Sulzer); test: Activity against green peach aphid (airbrush foliar spray); type: in vivo; details: death rate after 48 h; for pest or weed control at 10 µg/mL / pest or weed control at 100 µg/mL / pest or weed control at 600 µg/mL: Myzus persicae, foliar, 48 h; for pest or weed control at 10 µg/mL: read-out: Insecticidal activity against peach aphid; for pest or weed control at 100 µg/mL / pest or weed control at 600 µg/mL: read-out: Insecticidal activity against peach aphid (control)
Method: as §2, §3
Method: Filter papers were put in culture dishes (Diameter=6 cm), and water was dripped on filter papers for preserving moisture. Green peach aphids (Myzus Persicae Sulzer) were maintained on cabbage. Leaves (Diameter=3 cm) of approximately 15-30 aphids were put in the culture dishes. Bioactivity tests were used the method of Airbrush Foliar Spray, pressure=10 psi (0.7 kg/cm2), spray volume=0.5 mL. The studies were conducted at three constant temperatures 25±1 C. in incubator cabinets with 60±5% RH. Survey the survival aphids after 48 h and calculate the death rates.

rice blast = test: microbe, parasite or virus in culture; type: cell-based; details: for inhibition at 25 µg/mL: Pyricularia oryzae, 24 h, read-out: inhibition rate against rice blast; for inhibition rate against rice blast: in vitro, 24 hours
cucumber gray mold = test: Fungicidal activity in vitro (96-well, High Through Put), cucumber gray mold; type: cell-based; details: 25 mg/L, 24 hours, read-out: inhibition rate against cucumber gray mold
[2] = Triticum aestivum, 168 h, 400 mg/L, read-out: protectant activity against wheat powdery mildew
[3] = Triticum aestivum, 168 h, 25 mg/L, read-out: protectant activity against wheat powdery mildew
[4] = Triticum aestivum, 168 h, 100 mg/L, read-out: protectant activity against wheat powdery mildew

Row | SMILES | pest or weed control at 100 µg/mL (cucumber downy mildew; 100 mg/L) [%] | pest or weed control at 400 µg/mL (cucumber downy mildew; 400 mg/L) [%] | pest or weed control at 100 µg/mL (corn rust; 100 mg/L) [%] | pest or weed control at 400 µg/mL (corn rust; 400 mg/L) [%] | pest or weed control at 400 µg/mL (wheat powdery mildew; [2]) [%] | pest or weed control at 600 µg/mL (diamond back moth; 600 mg/L) [%] | pest or weed control at 600 µg/mL (armyworm; 600 mg/L) [%] | pest or weed control at 100 µg/mL (carmine spider mite) [%] | pest or weed control at 10 µg/mL ([1]; 10 mg/L) [%] | pest or weed control at 100 µg/mL ([1]; 100 mg/L) [%] | pest or weed control at 600 µg/mL ([1]; 600 mg/L) [%] | inhibition at 25 µg/mL (rice blast) [%] | pest or weed control at 25 µg/mL (wheat powdery mildew; [3]) [%] | pest or weed control at 100 µg/mL (wheat powdery mildew; [4]) [%] | protectant activity against cucumber downy mildew (cucumber downy mildew; 25 mg/L) [%] | protectant activity against cucumber downy mildew (cucumber downy mildew; 50 mg/L) [%] | protectant activity against cucumber downy mildew (cucumber downy mildew; 100 mg/L) [%] | protectant activity against cucumber downy mildew (cucumber downy mildew; 400 mg/L) [%] | further results
1 | ClCc1ncnc(NCc2ccc3c(c2)OCO3)c1Cl [CK12] | 0 | 50 | 0 | 40 | 0 | 0 | 0 | 0 | 0 | 0 | 10 | – | – | – | – | – | – | – | –
2 | CCc1ncnc(NCc2ccc3c(c2)OCO3)c1Cl [CK1] | 30 | 100 | 20 | 70 | 0 | – | 0 | 39 | 0 | 30 | 70 | 0 | – | – | – | – | – | – | pest or weed control at 25 µg/mL (cucumber downy mildew; 25 mg/L): 0%; pest or weed control at 50 µg/mL (cucumber downy mildew; 50 mg/L): 20%; pest or weed control at 25 µg/mL (corn rust; 25 mg/L): 0%
3 | Cc1ncnc(NCc2ccc3c(c2)OCO3)c1Cl [CK2] | 60 | 100 | 0 | 75 | 60 | 20 | 14 | 0 | 0 | 12 | 20 | 0 | 40 | 60 | – | – | – | – | pest or weed control at 25 µg/mL (cucumber downy mildew; 25 mg/L): 0%; pest or weed control at 50 µg/mL (cucumber downy mildew; 50 mg/L): 40%; pest or weed control at 6.25 µg/mL (wheat powdery mildew; Triticum aestivum, 168 h, 6.25 mg/L, read-out: protectant activity against wheat powdery mildew): 0%; pest or weed control at 100 µg/mL (diamond back moth): 5%; pest or weed control at 100 µg/mL (armyworm; 100 mg/L): 0%
4 | Cc1ncnc(NCCc2ccc3c(c2)OCO3)c1Cl [Compound 1451] | 0 | 100 | – | 80 | – | – | – | – | – | – | 100 | – | – | – | – | – | – | – | pest or weed control at 25 µg/mL (cucumber downy mildew; 25 mg/L): 0%; pest or weed control at 50 µg/mL (cucumber downy mildew; 50 mg/L): 0%
5 | FC(F)c1ncnc(NCCc2ccc3c(c2)OCO3)c1Cl [Compound 18] | – | – | – | – | – | – | – | – | – | – | – | – | – | – | 100 | 100 | 100 | 100 | inhibition rate against rice blast (rice blast; 0.9 mg/L): 80%; inhibition rate against rice blast (rice blast; 2.8 mg/L): 80%; inhibition rate against rice blast (rice blast; 8.3 mg/L): 100%; inhibition rate against rice blast (rice blast; 25 mg/L): 100%; protectant activity against cucumber downy mildew (cucumber downy mildew; 12.5 mg/L): 80%; protectant activity against corn rust (corn rust; 25 mg/L): 98%; protectant activity against corn rust (corn rust; 100 mg/L): 100%; protectant activity against corn rust (corn rust; 400 mg/L): 100%; protectant activity against wheat powdery mildew (wheat powdery mildew; 6.25 mg/L): 100%; protectant activity against wheat powdery mildew (wheat powdery mildew; 25 mg/L): 100%; protectant activity against wheat powdery mildew (wheat powdery mildew; 100 mg/L): 100%; protectant activity against wheat powdery mildew (wheat powdery mildew; 400 mg/L): 100%; control of the second instar larvae of diamond back moth (diamond back moth; 600 mg/L): 100%; control of the armyworm (armyworm; 600 mg/L): 100%; control against carmine spider mite (carmine spider mite): 90%; Insecticidal activity against peach aphid ([1]; 10 mg/L): 68%; Insecticidal activity against peach aphid (control) ([1]; 100 mg/L): 100%; Insecticidal activity against peach aphid (control) ([1]; 600 mg/L): 100%
6 | Cc1ncnc(NCCc2ccc3c(c2)OCO3)c1Cl [Compound 1452] | – | – | – | – | – | 80 | – | – | – | – | – | – | – | – | 0 | 0 | 0 | 95 | Insecticidal activity against peach aphid (control) ([1]; 600 mg/L): 90%
7 | FC(F)(F)c1ncnc(NCCc2ccc3c(c2)OCO3)c1Cl [Compound 20] | – | – | – | – | – | – | – | – | – | – | – | – | – | – | 20 | 100 | 100 | 100 | –
8 | COc1ccc(CCNc2ncnc(C(F)(F)F)c2Cl)cc1OC [CK7] | – | – | 0 | 70 | 80 | – | 0 | – | 0 | 37 | 66 | 0 | 0 | 30 | – | – | – | – | inhibition at 25 µg/mL (cucumber gray mold): 0%
9 | COc1ccc(CNc2ncnc(C(F)F)c2Cl)cc1OC [CK6] | 0 | 80 | – | – | 85 | – | 0 | 0 | – | – | 0 | 0 | 0 | 25 | – | – | – | – | pest or weed control at 100 µg/mL (diamond back moth): 0%
10 | CCc1ncnc(NCCc2ccc3c(c2)OCO3)c1Cl [Compound 1465] | – | – | 95 | 100 | – | 100 | – | – | 0 | 70 | 100 | – | – | – | – | – | – | – | pest or weed control at 6.25 µg/mL (corn rust): 0%; pest or weed control at 25 µg/mL (corn rust; 25 mg/L): 50%
11 | COc1ccc(CCNc2ncnc(C(F)F)c2Cl)cc1OC [CK5] | – | – | – | – | 100 | 40 | 0 | 0 | 8 | 35 | 100 | 0 | 0 | 20 | – | – | – | – | pest or weed control at 100 µg/mL (diamond back moth): 20%
12 | FC(F)c1ncnc(NCc2ccc3c(c2)OCO3)c1Cl [CK9] | 0 | 50 | 25 | 80 | 70 | 0 | 0 | 0 | – | – | – | 0 | 0 | 10 | – | – | – | – | pest or weed control at 6.25 µg/mL (corn rust): 0%; pest or weed control at 25 µg/mL (corn rust; 25 mg/L): 0%
13 | Clc1ncnc(NCCc2ccc3c(c2)OCO3)c1Cl [Compound 2] | – | – | – | – | – | – | – | – | – | – | – | – | – | – | 100 | 100 | 100 | 100 | inhibition rate against rice blast (rice blast; 2.8 mg/L): 80%; inhibition rate against rice blast (rice blast; 8.3 mg/L): 100%; inhibition rate against rice blast (rice blast; 25 mg/L): 100%; protectant activity against wheat powdery mildew (wheat powdery mildew; 400 mg/L): 100%

— patent publication US9447081B2, “Substituted pyrimidines as pharmaceuticals and insecticides” (SHENYANG SINOCHEM AGROCHEMICALS R&D CO., LTD., priority 2012, dated 2016)
